The Cmax is the maximum level reached in the sampled fluid or tissue. Broadly, the AUC is concentration integrated over time. In general, bioavailability refers to the share of a dose that reaches the circulation, judged against a reference dose that is usually intravenous. Low values mean poor availability, high ones good availability. A word on the Tmax: it is the time from dosing to the highest level.

These results are taken from ChEMBL document CHEMBL2434833, “Optimization of benzodiazepinones as selective inhibitors of the X-linked inhibitor of apoptosis protein (XIAP) second baculovirus IAP repeat (BIR2) domain” (J Med Chem, 2013).

Data set [1] can be described thus: Cmax in C57 mouse at 10 mg/kg, po. The class given is ADME, organism-based. Details: dose 10 mg/kg, route oral. The following applies: in vivo.
The nature of data set [2]: Plasma concentration in nude mouse xenografted with human LOX cells at 200 mg/kg, po measured at 8 hrs. It counts as ADME, organism-based. Also on record: dose 200 mg/kg, route oral.
The nature of data set [3]: AUC in C57 mouse at 10 mg/kg, po. The following applies: plasma. Also on record: dose 10 mg/kg, route oral. It counts as ADME, organism-based.
Data set [4] can be described thus: Oral bioavailability in C57 mouse at 10 mg/kg. It counts as ADME, organism-based. The following applies: in vivo.
A short description of data set [5]: Drug uptake in tumor of nude mouse xenografted with human LOX cells at 200 mg/kg, po measured at 8 hrs. The following applies: read-out: Drug uptake. The class given is ADME, organism-based, Neoplasm. Also on record: dose 200 mg/kg, route oral. For orientation: A xenograft is tissue or cells of one species grown in another, often human tumour cells in immunodeficient mice.

A short description of data set [6]: Tmax in C57 mouse at 10 mg/kg, po. The following applies: in vivo. It counts as ADME, organism-based. Details: dose 10 mg/kg, route oral.
The nature of data set [7]: Plasma concentration in nude mouse xenografted with human LOX cells at 100 mg/kg, po measured at 8 hrs. Also on record: dose 100 mg/kg, route oral. It counts as ADME, organism-based.
Data set [8] can be described thus: Drug uptake in tumor of nude mouse xenografted with human LOX cells at 100 mg/kg, po measured at 8 hrs. The class given is ADME, organism-based, Neoplasm. The following applies: read-out: Drug uptake. Also on record: dose 100 mg/kg, route oral.
In the next data set the test system is Liver microsomes. The following applies: human, up to 10 µM.

Take `CN[C@@H](C)C(=O)N[C@@H]1C(=O)N(Cc2c(C)ccc3ccccc23)c2ccc(C#N)cc2N(C(C)=O)[C@H]1C.Cl`: the Cmax in [1] turned out to be 823 ng/mL. Moreover, the concentration at 8 h in data set [2] is 5 µM; in [5] it was 7.7 µM. This compound also had an area under the curve (AUC) in [3] of 7870 ng·h/mL. In addition, in data set [4], the bioavailability stood at 28%. In data set [6], the time to peak (Tmax) is 0.25 h.
Regarding `CN[C@@H](C)C(=O)N[C@H](C(=O)N1CCC[C@H]1c1nc(C(=O)c2ccc(F)cc2)cs1)C1CCCCC1` [LCL-161], the concentration at 8 h in data set [7] is 3.3 µM; in [8], 18.4 µM.
As for `CN[C@@H](C)C(=O)N[C@@H]1C(=O)N(Cc2c(OC)ccc3ccccc23)c2ccc(C#N)cc2N(C(C)=O)[C@H]1C.Cl`, in data set [1], the Cmax turned out to be 873 ng/mL. In the data set with Liver microsomes, the Stability result was “Stable”. In data set [3], this compound yielded an AUC of 5980 ng·h/mL. The compound also displayed a bioavailability in data set [4] of 8%. Also, the Tmax in data set [6] stood at 4 h.
